Source: patent publication US10781224B2, “Bis(oxymethyl)phosphinic acid and biogenic metal salts thereof as regulators of plant growth and development” (priority 2016, dated 2020)
Several values for one entry are separate records, joined by “and”; a condition that tells them apart may be missing. Identical values can stand only once.

Test system: winter wheat (Vershin variety)
Assay: Winter wheat seed treatment with BHMPA salts: germinating power (length and mass of roots and sprouts)
Assay type: in vivo
Method in brief: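 Seeds (50 per Petri dish on two layers of filter paper) soaked 1 h in BHMPA or its Ca, Mg, Na, Co, Mn, Cu or Zn salts at 1·10^−6-1·10^−12%, with water controls. Germination energy read on day 4, germination on day 8 (wheat) or day 7 (rice, corn), as % means of four replicates. Germinating power taken as root and sprout length plus wet and dry mass per 100 seedlings.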

[1] = comparative study, 1·10^−9% solution

Substance: Copper BHMPA Salt [Cu-salt]
- effectiveness on germinating power (1·10^−6% and 1·10^−12% solutions): weren't effective
- Length, root (1·10^−6% solution): 4.6 cm
- Length, root, + % to control (1·10^−6% solution): −4%
- Length, sprout (1·10^−6% solution): 3.8 cm
- Length, sprout, + % to control (1·10^−6% solution): −5%
- Mass, dry, root (1·10^−6% solution): 0.41 g/100 plantlings
- Mass, dry, root, + % to control (1·10^−6% solution): −2%
- Mass, dry, sprout (1·10^−6% solution): 0.35 g/100 plantlings
- Mass, dry, sprout, + % to control (1·10^−6% solution): −5%
- Mass, wet, root (1·10^−6% solution): 2.61 g/100 plantlings
- Mass, wet, root, + % to control (1·10^−6% solution): −7%
- Mass, wet, sprout (1·10^−6% solution): 2.70 g/100 plantlings
- Mass, wet, sprout, + % to control (1·10^−6% solution): 1.5%
- Length, root (1·10^−7% solution): 4.9 cm
- Length, root, + % to control (1·10^−7% solution): 2%
- Length, sprout (1·10^−7% solution): 4.0 cm
- Length, sprout, + % to control (1·10^−7% solution): 0%
- Mass, dry, root (1·10^−7% solution): 0.44 g/100 plantlings
- Mass, dry, root, + % to control (1·10^−7% solution): 2%
- Mass, dry, sprout (1·10^−7% solution): 0.40 g/100 plantlings
- Mass, dry, sprout, + % to control (1·10^−7% solution): 8%
- Mass, wet, root (1·10^−7% solution): 3.35 g/100 plantlings
- Mass, wet, root, + % to control (1·10^−7% solution): 19%
- Mass, wet, sprout (1·10^−7% solution): 3.05 g/100 plantlings
- Mass, wet, sprout, + % to control (1·10^−7% solution): 15%
- Length, root (1·10^−8% solution): 5.1 cm
- Length, root, + % to control (1·10^−8% solution): 6%
- Length, sprout (1·10^−8% solution): 4.1 cm
- Length, sprout, + % to control (1·10^−8% solution): 2.5%
- Mass, dry, root (1·10^−8% solution): 0.47 g/100 plantlings
- Mass, dry, root, + % to control (1·10^−8% solution): 9%
- Mass, dry, sprout (1·10^−8% solution): 0.46 g/100 plantlings
- Mass, dry, sprout, + % to control (1·10^−8% solution): 24%
- Mass, wet, root (1·10^−8% solution): 3.68 g/100 plantlings
- Mass, wet, root, + % to control (1·10^−8% solution): 31%
- Mass, wet, sprout (1·10^−8% solution): 3.22 g/100 plantlings
- Mass, wet, sprout, + % to control (1·10^−8% solution): 21%
- Length, root (1·10^−9% solution): 5.6 cm
- Length, root, + % to control (1·10^−9% solution): 17%
- Length, sprout (1·10^−9% solution): 4.7 cm
- Length, sprout, + % to control (1·10^−9% solution): 17% and 17.5%
- Mass, dry, root (1·10^−9% solution): 0.60 g/100 plantlings
- Mass, dry, root, + % to control (1·10^−9% solution): 39.5%
- Mass, dry, sprout (1·10^−9% solution): 0.50 g/100 plantlings
- Mass, dry, sprout, + % to control (1·10^−9% solution): 35%
- Mass, wet, root (1·10^−9% solution): 4.13 g/100 plantlings
- Mass, wet, root, + % to control (1·10^−9% solution): 47%
- Mass, wet, sprout (1·10^−9% solution): 3.61 g/100 plantlings
- Mass, wet, sprout, + % to control (1·10^−9% solution): 36%
- Length, root (1·10^−10% solution): 5.3 cm
- Length, root, + % to control (1·10^−10% solution): 10%
- Length, sprout (1·10^−10% solution): 4.4 cm
- Length, sprout, + % to control (1·10^−10% solution): 10%
- Mass, dry, root (1·10^−10% solution): 0.49 g/100 plantlings
- Mass, dry, root, + % to control (1·10^−10% solution): 14%
- Mass, dry, sprout (1·10^−10% solution): 0.48 g/100 plantlings
- Mass, dry, sprout, + % to control (1·10^−10% solution): 30%
- Mass, wet, root (1·10^−10% solution): 3.75 g/100 plantlings
- Mass, wet, root, + % to control (1·10^−10% solution): 33.5%
- Mass, wet, sprout (1·10^−10% solution): 3.34 g/100 plantlings
- Mass, wet, sprout, + % to control (1·10^−10% solution): 25.5%
- Length, root (1·10^−11% solution): 5.1 cm
- Length, root, + % to control (1·10^−11% solution): 6%
- Length, sprout (1·10^−11% solution): 4.1 cm
- Length, sprout, + % to control (1·10^−11% solution): 2.5%
- Mass, dry, root (1·10^−11% solution): 0.46 g/100 plantlings
- Mass, dry, root, + % to control (1·10^−11% solution): 7%
- Mass, dry, sprout (1·10^−11% solution): 0.46 g/100 plantlings
- Mass, dry, sprout, + % to control (1·10^−11% solution): 24%
- Mass, wet, root (1·10^−11% solution): 3.44 g/100 plantlings
- Mass, wet, root, + % to control (1·10^−11% solution): 11%
- Mass, wet, sprout (1·10^−11% solution): 3.20 g/100 plantlings
- Mass, wet, sprout, + % to control (1·10^−11% solution): 20%
- Length, root (1·10^−12% solution): 4.8 cm
- Length, root, + % to control (1·10^−12% solution): 0%
- Length, sprout (1·10^−12% solution): 4.0 cm
- Length, sprout, + % to control (1·10^−12% solution): 0%
- Mass, dry, root (1·10^−12% solution): 0.41 g/100 plantlings
- Mass, dry, root, + % to control (1·10^−12% solution): −2%
- Mass, dry, sprout (1·10^−12% solution): 0.42 g/100 plantlings
- Mass, dry, sprout, + % to control (1·10^−12% solution): 13.5%
- Mass, wet, root (1·10^−12% solution): 3.01 g/100 plantlings
- Mass, wet, root, + % to control (1·10^−12% solution): 7%
- Mass, wet, sprout (1·10^−12% solution): 2.92 g/100 plantlings
- Mass, wet, sprout, + % to control (1·10^−12% solution): 10%
- Length, root [1]: 10.9 cm
- Length, root, + % to control [1]: 25%
- Length, sprout [1]: 7.2 cm
- Length, sprout, + % to control [1]: 16%
- Mass, dry, root [1]: 0.67 g/100 plantlings
- Mass, dry, root, + % to control [1]: 8%
- Mass, dry, sprout [1]: 0.59 g/100 plantlings
- Mass, dry, sprout, + % to control [1]: 16%
- Mass, wet, root [1]: 5.45 g/100 plantlings
- Mass, wet, root, + % to control [1]: 51%
- Mass, wet, sprout [1]: 5.00 g/100 plantlings
- Mass, wet, sprout, + % to control [1]: 26%
